Laboratory results taken from US5484780A, “Angiotensin II antagonists” (Eli Lilly and Company, priority 1994, dated 1996).

Columns and labels:
[1] = target: T1, angiotensin-induced vasoconstriction (rabbit aorta) (Oryctolagus cuniculus, UniProt P34976); assay: Rabbit Aorta Test System: antagonism of angiotensin II contraction of aortic rings; parameters: species or system New Zealand white rabbits; details: contraction to AII 10^-10 to 10^-7 M, 30 minutes incubation with compound; pA2 = -log KB
T1 construct: The thoracic aortas were removed and cleaned of excess fat and connective tissue; from tissue; host or cells: thoracic aorta rings of New Zealand white rabbits (animals from Hazelton)
T1 sequence (P34976 1-359): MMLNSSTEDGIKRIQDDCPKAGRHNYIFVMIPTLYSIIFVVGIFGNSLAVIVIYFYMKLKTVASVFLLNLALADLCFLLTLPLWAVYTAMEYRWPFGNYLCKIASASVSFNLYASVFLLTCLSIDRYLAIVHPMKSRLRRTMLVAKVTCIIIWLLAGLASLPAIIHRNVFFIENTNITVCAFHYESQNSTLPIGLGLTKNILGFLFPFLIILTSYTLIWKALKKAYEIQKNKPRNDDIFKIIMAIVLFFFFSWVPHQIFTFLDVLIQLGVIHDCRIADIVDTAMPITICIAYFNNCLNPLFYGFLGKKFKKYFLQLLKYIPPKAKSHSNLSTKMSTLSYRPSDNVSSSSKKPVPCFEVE
Protocol: (§1) As previously discussed, the compounds of Formula I are potent effective antagonists of angiotensin II. The ability of representative compounds of Formula I to block angiotensin II receptor binding was determined using the adrenal glomerulosa assay. The ability to antagonize angiotensin-induced vasoconstriction was evaluated in the rabbit aorta test system.
New Zealand white rabbits (Hazelton, 2-3 kg) were sacrificed by cervical dislocation. The thoracic aortas were removed and cleaned of excess fat and connective tissue. Rings of tissue (3 mm wide) were mounted in 10 ml tissue baths between 2 L-shaped stainless steel hooks. The lower hook was attached to a stationary rod. The upper hook was attached to a force displacement transducer (Grass model FT.03). The bath chambers were maintained at 37° C., aerated with 95% 02 /5% C02, and contained physiological solution of the following composition (mM): NaCl, 117; glucose, 5.6; NaH2 PO4, 1.0; MgS04, 0.7; KCl, 5.2; CaCl2, 1.8; NaHCO3, 26; and phentolamine HCl, 0.003.
Rings were equilibrated for 1 hour with 2 g of tension. During the equilibration period, the tissues were washed by overflow every 15 minutes. Rings were then exposed to 10^-8 M angiotensin II (AII) and were allowed to contract until a steady state was reached. Tissues were then washed every 15 minutes for 1 hour. This was repeated every hour until the AII response stabilized. A cumulative concentration response curve to AII (10^-10 to 10^-7 M) was then obtained. At the conclusion of the concentration response curve, tissues were washed every 2 minutes until baseline tension was reached, then every 15 minutes for 30 minutes. Compounds were added in a volume of 10 μl DMSO and allowed to incubate for 30 minutes before repeating the concentration response curve to AII. Contractions to AII were expressed as a percent of the maximum contraction obtained in the control curve (the first AII concentration response curve). EC50 's (concentration that contracted the tissues to 1/2 the control maximum) for each curve were calculated using a 4 parameter logistics model (NonLin, SAS Institute). Potency data for each compound tested are expressed as the pA2 (defined as-log KB, where KB =[molar concentration of antagonist]/[(EC50 AII with antagonist/EC50 AII without antagonist)-1]).

[2] = target: angiotensin II receptor (adrenal membranes); assay: Adrenal Glomerulosa Test System: binding of I^125-angiotensin II to adrenal membranes; details: displacement of 0.1 nM I^125-angiotensin II, rat adrenal membranes, 90 minutes, room temperature; KI by Cheng Prusoff equation; read-out: Adrenal Glomulosa (KI)
Protocol: as §1
Binding of I^125 -angiotensin II to adrenal membranes was routinely carried out in 96-well filtration plates. Adrenal membranes were prepared from the capsular portion (glomerulosal layer attached) of rat adrenal glands by differential centrifugation. Briefly, capsules were homogenized in a solution containing sucrose, 250 mM; MgCl2, 1 mM; and tris, 5 mM at pH 7.5 and 4° C. using a polytron at setting 5 for 20 seconds. The homogenate was stirred, gently, for 15 minutes at 4° C. and then centrifuged 10 minutes, at 1000×g, 4° C. The supernatant was centrifuged 30 minutes, at 30,000×g, 4° C., and the resulting pellet resuspended in 50 mM tris. Membrane preparations were stored in aliquots at -70° C. until used. Binding of I^125 -angiotensin II to adrenal membranes was performed at room temperature for 90 minutes in 96-well plates containing a hydrophilic polyvinylidene fluoride membrane (0.45 μm, Millipore-GV multiscreen). Each 250 μincubate contained the following (final concentration): tris, 50 mM; NaCl, 120 mM; MgCl2, 5 mM; dithiothrietol 1 mM; bovine serum albumin, 0.05%; I^125 -angiotensin II, 0.1 nM; and adrenal membrane protein, 8-15 μg. Antagonists were added in concentrations from 10 nM to 100 μM. Non-specific binding was measured in the presence of 0.1 μM Sar1, Ile8 angiotensin II.
Binding was terminated by vacuum filtration. Receptor-ligand complex trapped on filters was washed 3 times with 300 μl ice-cold wash solution (tris, 50 mM; NaCl, 120 mM; MgCl2, 5 mM; dithiothrietol, 1 mM). Filter discs were dried, punched out and counted in a gamma counter at 52% efficiency. Specific binding represented 96% of total binding (approximately 150 fmol angiotensin II/mg protein). The molar concentration (IC50) of the inhibitor that displaced 50% of the binding of I^125 angiotensin II for each compound was calculated using a 4 parameter logistics model (NonLin, SAS Institute). Data are expressed as KI calculated using the Cheng Prusoff equation. See Cheng et al. Biochem. Pharmacol. 22: 3099 (1973).

| Kb [1] [nM] | Ki [2] [nM] | Structure (SMILES) |
| --- | --- | --- |
| 2000 | 10300 | CCCCCCC(C(=O)NCC)n1cnc(NC(=O)c2ccccc2S(=O)(=O)O)c1 (stereo not shown) [Example 1, N-Ethyl-2-[4-(2-sulfobenzoyl)amino-1H-imidazol-1-yl]octanoamide] |
| 63.1 | 2930 | CCCCCCC(C(=O)O)n1cnc(NC(=O)c2cccc(O)c2S(=O)(=O)O)c1 (stereo not shown) [Example 10, 2-[4-(3-Hydroxy-2-sulfobenzoyl)amino-1H-imidazol-1-yl]octanoic acid] |
| 501 | 178000 | CCCCCCC(C(=O)N1CCNC1=O)n1cnc(NC(=O)c2ccccc2S(=O)(=O)O)c1 (stereo not shown) [Example 5, 2-[[[1-[1-[(2-oxo-1-imidazolidinyl)carbonyl]heptyl]-1H-imidazol-4-yl]amino]carbonyl]benzenesulfonic acid] |
| 1580 | 6800 | CCCCCCC(C(=O)Nc1ccccn1)n1cnc(NC(=O)c2ccccc2S(=O)(=O)O)c1 (stereo not shown) [Example 7, N-(2-Pyridyl)-2-[4-(2-sulfobenzoyl)amino-1H-imidazol-1-yl]octanoamide] |
| 3980 | 9600 | CCCCCCC(C(=O)NCC(F)(F)F)n1cnc(NC(=O)c2ccccc2S(=O)(=O)O)c1 (stereo not shown) [Example 3, N-(2,2,2-Trifluoroethyl)-2-[4-(2-sulfobenzoyl)amino-1H-imidazol-1-yl]octanoamide] |
| 1000 | 12100 | CCCCCCC(C(=O)NC(C)(C)CO)n1cnc(NC(=O)c2ccccc2S(=O)(=O)O)c1 (stereo not shown) [Example 4, N-[2-(1-Hydroxy-2-methyl)propyl]-2-[4-(2-sulfobenzoyl)amino-1H-imidazol-1-yl]octanoamide] |
| 794 | 8200 | CCCCCCC(C(=O)NCCC)n1cnc(NC(=O)c2ccccc2S(=O)(=O)O)c1 (stereo not shown) [Example 2, N-Propyl-2-[4-(2-sulfobenzoyl)amino-1H-imidazol-1-yl]octanoamide] |
| 1580 | 13000 | CCCCCCC(C(=O)Nc1ccccc1O)n1cnc(NC(=O)c2ccccc2S(=O)(=O)O)c1 (stereo not shown) [Example 8, N-(2-Hydroxyphenyl)-2-[4-(2-sulfobenzoyl)amino-1H-imidazol-1-yl]octanoamide] |
| 251 | 12400 | CCCCCCC(C(=O)Nc1ccccc1C(=O)O)n1cnc(NC(=O)c2ccccc2S(=O)(=O)O)c1 (stereo not shown) [Example 9, N-(2-Carboxyphenyl)-2-[4-(2-sulfobenzoyl)amino-1H-imidazol-1-yl]octanoamide] |
| 1.26 | – | CCCCCC[C@H](C(=O)N1C[C@@H](Oc2ccc(CCP(=O)(O)O)cc2)C[C@H]1C(=O)O)n1cnc(NC(=O)c2ccccc2S(=O)(=O)O)c1 [Example 42] |
